IC50 data for 7 compounds are collected here from patent publication US20240148821A1, “PHARMACEUTICAL USE OF CYCLIC PEPTIDE COMPOUND” (CHUGAI SEIYAKU KABUSHIKI KAISHA, priority 2021, published 2024).

Numbered stars: 1 amine (or outer) side, 2 acyl side, 3 side chain; on linkers, the order of the positions; unused ones are H or OH. Bridge positions count the residues as written; N and C are the ends. Square brackets hold non-standard residues; d marks the D form. Peptide text beside a SMILES is read from it. * marks the point of attachment. hPhe(3,5-F2-4-CF3) = N[C@@H](CCc1cc(F)c(C(F)(F)F)c(F)c1)C(=O)O; hPhe(3-Cl-4-CF3) = N[C@@H](CCc1ccc(C(F)(F)F)c(Cl)c1)C(=O)O; NEtPhe(4-CF3) = CCN[C@@H](Cc1ccc(C(F)(F)F)cc1)C(=O)O; NEtAsp = CCN([C@@H](CC(=O)[*:3])C(=O)[*:2])[*:1]; NMePhe(4-Me) = CN[C@@H](Cc1ccc(C)cc1)C(=O)O; NMedβ3hAla = C[C@H](CC(=O)[*:2])N(C)[*:1]; NMeGly(cPent) = CN[C@H](C(=O)O)C1CCCC1; Pro(4,4-F2) = O=C(O)[C@@H]1CC(F)(F)CN1; NMeGly(cBu) = CN[C@H](C(=O)O)C1CCC1; NMeCha = CN[C@@H](CC1CCCCC1)C(=O)O; NMeF = CN[C@@H](Cc1ccccc1)C(=O)O; Gly(cPr) = N[C@H](C(=O)O)C1CC1; NMeL = CN[C@@H](CC(C)C)C(=O)O; NMeV = CN[C@H](C(=O)O)C(C)C; d(β3hA) = C[C@@H](N)CC(=O)O; NMeA = CN[C@@H](C)C(=O)O; NMeAib = CNC(C)(C)C(=O)O; Piperidide = C1CCN(*)CC1; dNMeA = CN[C@H](C)C(=O)O; Ac5c = NC1(C(=O)O)CCCC1; Aze = O=C(O)[C@@H]1CCN1; Ac4c = NC1(C(=O)O)CCC1; Sar = CNCC(=O)O

The target of the test is protein-protein interaction between Kras and SOS1 (biotin-tagged human Kras loaded with GDP, His-tagged human SOS1) (Homo sapiens (Human), UniProt P01116, G12D). The experiment in a line: Protein-protein interaction inhibition between Kras and SOS1 (KrasG12D-SOS PPI) using AlphaScreen.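 Note: kras produced in E. coli, Ni-coupled donor beads and streptavidin acceptor beads, excitation 680 nm with emission detected at 520–620 nm via singlet oxygen transfer.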 In kind it is biochemical. Particulars: AlphaScreen; biotin-tagged human Kras loaded with GDP, His-tagged human SOS1; read-out: KRAS G12D-SOS PPI IC50.
One may read the IC50 as the concentration needed to halve the response being measured. As for `CC(C)C[C@H]1C(=O)N[C@@H](C2CC2)C(=O)N(C)[C@@H](C)C(=O)N2CC[C@H]2C(=O)N(C)[C@@H](CC2CCCCC2)C(=O)N(C)CC(=O)N[C@@H](CCc2ccc(C(F)(F)F)c(Cl)c2)C(=O)N2CCC[C@H]2C(=O)NC2(CCCC2)C(=O)N(C)[C@@H](C(C)C)C(=O)N[C@H](C)CC(=O)N1C` [Compound 490] (cyclo([Ac5c][NMeV][d(β3hA)][NMeL][Gly(cPr)][NMeA][Aze][NMeCha][Sar][hPhe(3-Cl-4-CF3)]P)), the IC50 worked out at 240 nM.

Turning to `CC[C@H](C)[C@@H]1NC(=O)[C@H](C)N(C)C(=O)C[C@@H](C)NC(=O)[C@H](C(C)C)N(C)C(=O)C2(CCCC2)NC(=O)[C@@H]2CCCN2C(=O)[C@H](CCc2ccc(C(F)(F)F)c(Cl)c2)NC(=O)[C@H]2CCCN2C(=O)[C@H](CC2CCCCC2)N(C)C(=O)CN(C)C(=O)CN(C)C1=O` [Compound 412] (cyclo([Ac5c][NMeV][d(β3hA)][NMeA]I[Sar][Sar][NMeCha][dP][hPhe(3-Cl-4-CF3)]P)), the IC50 turned out to be 120 nM.

For the compound `CC[C@H](C)[C@@H]1NC(=O)[C@H](CC(C)C)N(C)C(=O)C[C@@H](C)N(C)C(=O)[C@H](C2CCCC2)N(C)C(=O)C2(CCC2)NC(=O)[C@@H]2CC(F)(F)CN2C(=O)[C@H](CCc2cc(F)c(C(F)(F)F)c(F)c2)NC(=O)CN(C)C(=O)[C@H](Cc2ccc(C(F)(F)F)cc2)N(CC)C(=O)[C@@H]2CCN2C(=O)[C@H](C)N(C)C1=O` [Compound 1049] (cyclo([Ac4c][NMeGly(cPent)][NMedβ3hAla][NMeL]I[NMeA][Aze][NEtPhe(4-CF3)][Sar][hPhe(3,5-F2-4-CF3)][Pro(4,4-F2)])), the half-maximal inhibitory concentration (IC50) is 3.7 nM.

Regarding `CC[C@H](C)[C@@H]1NC(=O)[C@H](CC(C)C)N(C)C(=O)C[C@@H](C)NC(=O)[C@H](C(C)C)N(C)C(=O)C2(CCCC2)NC(=O)[C@@H]2CCCN2C(=O)[C@H](CCc2ccc(C(F)(F)F)c(Cl)c2)NC(=O)CN(C)C(=O)[C@H](Cc2ccc(C)cc2)N(C)C(=O)[C@@H]2CCN2C(=O)[C@H](C)N(C)C1=O` [Compound 1801] (cyclo([Ac5c][NMeV][d(β3hA)][NMeL]I[NMeA][Aze][NMePhe(4-Me)][Sar][hPhe(3-Cl-4-CF3)]P)), the half-inhibitory concentration (IC50) was found to be 2.9 nM.

As to `CC[C@H](C)[C@@H]1NC(=O)[C@H](C)N(C)C(=O)C[C@@H](C)N(C)C(=O)[C@H](CC(C)C)NC(=O)C(C)(C)N(C)C(=O)[C@H](CC(C)C)NC(=O)[C@H](CCc2ccc(C(F)(F)F)c(Cl)c2)NC(=O)[C@@H](C)N(C)C(=O)[C@H](Cc2ccc(C)cc2)N(C)C(=O)CN(C)C(=O)CN(C)C1=O` [Compound 1381] (cyclo(I[Sar][Sar][NMePhe(4-Me)][dNMeA][hPhe(3-Cl-4-CF3)]L[NMeAib]L[NMedβ3hAla][NMeA])), the half-inhibitory concentration (IC50) came to 150 nM.

Take `CC[C@H](C)[C@@H]1NC(=O)[C@H](CC(C)C)N(C)C(=O)C[C@@H](C(=O)N2CCCCC2)N(CC)C(=O)[C@H](C2CCCC2)N(C)C(=O)C2(CCCC2)NC(=O)[C@@H]2CCCN2C(=O)[C@H](CCc2ccc(C(F)(F)F)c(Cl)c2)NC(=O)CN(C)C(=O)[C@H](C2CCC2)N(C)C(=O)[C@@H]2CCN2C(=O)[C@H](C)N(C)C1=O` [Compound 1047] ([NMeL]I[NMeA][Aze][NMeGly(cBu)][Sar][hPhe(3-Cl-4-CF3)]P[Ac5c][NMeGly(cPent)][NEtAsp]-Piperidide; lactam N-11): the half-maximal inhibitory concentration (IC50) stood at 6.3 nM.

Take `CC[C@H](C)[C@@H]1NC(=O)[C@H](CC(C)C)N(C)C(=O)C[C@@H](C)NC(=O)[C@H](C(C)C)N(C)C(=O)C2(CCCC2)NC(=O)[C@@H]2CCCN2C(=O)[C@H](CCc2ccc(C(F)(F)F)c(Cl)c2)NC(=O)CN(C)C(=O)[C@H](CC2CCCCC2)N(C)C(=O)[C@@H]2CCN2C(=O)[C@H](Cc2ccccc2)N(C)C1=O` [Compound 1628] (cyclo([Ac5c][NMeV][d(β3hA)][NMeL]I[NMeF][Aze][NMeCha][Sar][hPhe(3-Cl-4-CF3)]P)): the IC50 came out at 67 nM.
